The test system of one series is intact SS cells. Description: Antisickling study (RBC morphology) under hypoxia with homozygous SS blood. Conditions: SS blood hematocrit 20%, 2.5% oxygen, 37° C., 2 hr. Type of series: cell-based, human. The procedure:
(§1) In vitro Hemoglobin Modification, Oxygen Equilibrium and Antisickling Studies Using Human homozygous Sickle cell (SS) Blood
(§2) Materials and General Procedure: Leftover blood samples from patients with homozygous SS were obtained and utilized, based on an approved IRB protocol at the Children's Hospital of Philadelphia, with informed consent.
(§3) Following, the suspensions were incubated under hypoxic condition (2.5% oxygen) at 37° C. for 2 hr. Aliquot samples were fixed with 2% glutaraldehyde solution without exposure to air, and then subjected to microscopic morphological analysis. The residual samples were washed in phosphate-buffered saline, and hemolyzed in hypotonic lysis buffer for the Hb oxygen equilibrium and Hb adduct experiments. […] Another aliquot from the lysate was also subjected to Hb adduct formation study using cation-exchange HPLC (Hitachi D-7000 Series, Hitachi Instruments, Inc., San Jose, Calif.) with a weak cation-exchange column (Poly CAT A: 30 mm×4.6 mm, Poly LC, Inc., Columbia, Md.). To determine the binding of the MMA compounds to either α- or β-globin chains, the hemolysates were subjected to reversed-phase (RP) HPLC on a Hitachi D-7000 HSM Series, using a Jupiter 5 μm C-4 50×4.6 mm column, (Phenomenex®, Torrence, Calif.) and a gradient from 20% to 60% acetonitrile in 0.3% trifluoroacetic acid in 15 minutes, with UV detection at 215 nm.

Series [1] has as its target T1, Hb (Homo sapiens, UniProt P68871+P69905, E7V).
T1 construct: Leftover blood samples from patients with homozygous SS were obtained and utilized; from tissue; host or cells: blood (red blood cells) of patients with homozygous SS
As to the kind of experiment: Hb oxygen equilibrium study (P50 shift, Hemox Analyzer) on lysate of treated SS cells. Type of series: cell-based. Conditions: intact SS cells, read-out: increase in Hb oxygen affinity (ΔP50); for percent P50 decrease (increase in Hb oxygen affinity) at 2000 µM: 2 mM compound; for percent P50 decrease (increase in Hb oxygen affinity) at 5000 µM: 5 mM compound.
Excerpt: as §1, §2
as §3, with “Experimental Procedure: The MMA series of compounds (MMA-202, MMA-204, and MMA-405) and the positive control vanillin were studied for their abilities to inhibit hypoxia-induced RBC sickling (RBC morphology study), increase Hb oxygen, and/or modify Hb (adduct formation) as previously published.^31,33 Briefly, homozygous SS blood (hematocrit: 20%) suspensions were incubated under air in the absence or presence of 2 and/or 5 mM concentration of test compounds at 37° C. for 1 hr. Following,” for “Following,”

In series [2] the target is T1, Hb. Description: Hb adduct formation study by cation-exchange HPLC after incubation with intact SS cells. Type of series: cell-based. Conditions: 2 mM and/or 5 mM. The procedure: Experimental Procedure: The MMA series of compounds (MMA-202, MMA-204, and MMA-405) and the positive control vanillin were studied for their abilities to inhibit hypoxia-induced RBC sickling (RBC morphology study), increase Hb oxygen, and/or modify Hb (adduct formation) as previously published.^31,33 Briefly, homozygous SS blood (hematocrit: 20%) suspensions were incubated under air in the absence or presence of 2 and/or 5 mM concentration of test compounds at 37° C. for 1 hr. Following, the suspensions were incubated under hypoxic condition (2.5% oxygen) at 37° C. for 2 hr. Aliquot samples were fixed with 2% glutaraldehyde solution without exposure to air, and then subjected to microscopic morphological analysis. The residual samples were washed in phosphate-buffered saline, and hemolyzed in hypotonic lysis buffer for the Hb oxygen equilibrium and Hb adduct experiments. […] Another aliquot from the lysate was also subjected to Hb adduct formation study using cation-exchange HPLC (Hitachi D-7000 Series, Hitachi Instruments, Inc., San Jose, Calif.) with a weak cation-exchange column (Poly CAT A: 30 mm×4.6 mm, Poly LC, Inc., Columbia, Md.). […]

The target in a further series is T2, α- or β-globin chains (Homo sapiens, UniProt P68871+P69905, E7V).
T2 construct: Leftover blood samples from patients with homozygous SS were obtained and utilized; from tissue; host or cells: blood (red blood cells) of patients with homozygous SS
As to the kind of experiment: Reversed-phase HPLC of hemolysates for binding to α- or β-globin chains. Type of series: cell-based. Conditions: reverse-phase HPLC; 2 mM and/or 5 mM; intact SS cells. How it is done:
Experimental Procedure: The MMA series of compounds (MMA-202, MMA-204, and MMA-405) and the positive control vanillin were studied for their abilities to inhibit hypoxia-induced RBC sickling (RBC morphology study), increase Hb oxygen, and/or modify Hb (adduct formation) as previously published.^31,33 Briefly, homozygous SS blood (hematocrit: 20%) suspensions were incubated under air in the absence or presence of 2 and/or 5 mM concentration of test compounds at 37° C. for 1 hr. Following, the suspensions were incubated under hypoxic condition (2.5% oxygen) at 37° C. for 2 hr. Aliquot samples were fixed with 2% glutaraldehyde solution without exposure to air, and then subjected to microscopic morphological analysis. The residual samples were washed in phosphate-buffered saline, and hemolyzed in hypotonic lysis buffer for the Hb oxygen equilibrium and Hb adduct experiments. […] Another aliquot from the lysate was also subjected to Hb adduct formation study using cation-exchange HPLC (Hitachi D-7000 Series, Hitachi Instruments, Inc., San Jose, Calif.) with a weak cation-exchange column (Poly CAT A: 30 mm×4.6 mm, Poly LC, Inc., Columbia, Md.). To determine the binding of the MMA compounds to either α- or β-globin chains, the hemolysates were subjected to reversed-phase (RP) HPLC on a Hitachi D-7000 HSM Series, using a Jupiter 5 μm C-4 50×4.6 mm column, (Phenomenex®, Torrence, Calif.) and a gradient from 20% to 60% acetonitrile in 0.3% trifluoroacetic acid in 15 minutes, with UV detection at 215 nm.

Series [3] deals with Hb (Homo sapiens, UniProt P68871+P69905). Description: In vitro time-dependent Hb oxygen equilibrium study using normal whole blood. Conditions: 2 mM; normal whole blood 30% hct; 37° C.; 1, 4 and 24 hr.
The conditions of series [4]: in-vivo; aldehyde protected by L-cysteine; cited from earlier work.

By melting point is commonly meant the temperature of the solid-liquid transition. In the case of `COC(=O)C(=O)c1ccc(OC)cc1` [MMA-201, methyl 2-(4-methoxyphenyl)-2-oxoacetate], the melting point turned out to be 49 °C.

With `C=CC(=O)c1ccc(OC)cc1` [MMA-202, 1-(4-methoxyphenyl)prop-2-en-1-one], the RBC sickling was determined as 48% in the series with intact SS cells (1 mM compound), 28% in the series on intact SS cells (2 mM compound) and 15% in the series with intact SS cells (5 mM compound). The percent P50 decrease (increase in Hb oxygen affinity) at 2000 µM on Hb [1] was 13%. For the same molecule, at Hb [1], the percent P50 decrease (increase in Hb oxygen affinity) at 5000 µM stood at 51%. In addition, at Hb [2], the “Hb modification (adduct formation)” value was “significant Hb modification”. Also, the globin chain bound entry on α- or β-globin chains was “bind to both the α-chain and β-chain”. In addition, the “time course of Hb oxygen affinity activity (% P50 shift) over 24 hr” value on Hb [3] is recorded as “sustained throughout the 24 hr experiment”.

Turning to `COc1ccc(C(=O)C(N)=O)cc1` [MMA-203, 2-(4-methoxyphenyl)-2-oxoacetamide], the melting point was found to be 146 °C.

The molecule `C#CC(=O)c1ccc(OC)cc1` [MMA-204, 1-(4-methoxyphenyl)prop-2-yn-1-one] registered an RBC sickling with intact SS cells (2 mM compound) of 57%. Further, the RBC sickling in the series on intact SS cells (5 mM compound) was determined as 44%. Also, on Hb [1], the percent P50 decrease (increase in Hb oxygen affinity) at 2000 µM came to 29% and the percent P50 decrease (increase in Hb oxygen affinity) at 5000 µM stood at 62%. For the same molecule, the globin chain bound result at α- or β-globin chains was “bind exclusively with the β-chain”.

For the molecule `C=CC(=O)c1ccc(OC2CCCCO2)cc1` (centres unmarked) [MMA-205, 1-(4-((tetrahydro-2H-pyran-2-yl)oxy)phenyl)prop-2-en-1-one], the RBC sickling in the series with intact SS cells (2 mM compound) was 46%. Further, in the series on intact SS cells (5 mM compound), the RBC sickling is given as 27%. For the same molecule, at Hb [1], the percent P50 decrease (increase in Hb oxygen affinity) at 2000 µM amounted to 21% and the percent P50 decrease (increase in Hb oxygen affinity) at 5000 µM was 39%. The “Hb modification (adduct formation)” value at Hb [2] is given as “significant Hb modification”. Moreover, at α- or β-globin chains, the globin chain bound result was “bind exclusively with the β-chain”.

`COc1cc(C2NC(C(=O)O)CS2)ccc1O` (centres unmarked) [thiazolidine complex of Vanillin]: the “extension of Vanillin half-life” value in series [4] is given as 2 fold.

As to `COc1cc(C=O)ccc1O` [vanillin], the RBC sickling with intact SS cells (2 mM compound) worked out at 57%. The RBC sickling in the series with intact SS cells (5 mM compound) is recorded as 36%. At Hb [1], the percent P50 decrease (increase in Hb oxygen affinity) at 2000 µM worked out at 12% and the percent P50 decrease (increase in Hb oxygen affinity) at 5000 µM came out at 27%.

Source of the values: patent US11104632B1, “Metabolically stable vanillin derivatives for the treatment of hypoxia” (King Abdulaziz University, priority 2020, dated 2021).
